Where no end group is shown, it is not given here.
System: human colon cancer cell line LS 174T
Test: Growth of carcinomas of LS 174T in nude mice
Assay type: in vivo, nude mice (BALB/cAnN-nu)
Settings: osmotic pump 48 nmol/day for 14 days, 11th to 20th day, vs distilled water
Experimental: Effects on the growth of carcinomas by the human TGR23-2 ligand (1-20) in nude mice of human colon cancer cell line LS 174T were investigated.
The LS 174T dissolved in PBS (phosphate buffered saline) was subcutaneously administered at the ratio of 4×10^6 cells/200 μl/mouse to left abdominal of female nude mice (BALB/cAnN-nu, six weeks old). After three hours of administration, 100 μl of the human TGR23-2 ligand (1-20) dissolved in Otsuka distilled water at the concentration of 2 mM, or Otsuka distilled water was filled in the Micro-Osmotic Pump (alza, model 1002), and further embedded under the skin in the back of mouse under anesthesia (n=10 per each group). From this day, the human TGR23-2 ligand (1-20) was continuously released for 14 days at 48 nmol/day. From the third day of administration, dimensions of the carcinoma were measured, and carcinoma volume was calculated based on the formula: (major axis)×(minor axis)^2/2.

With “SFRNGVGTGMKKTSFQRAKS [human TGR23-2 ligand (1-20)]” as the sequence, how does the “carcinoma volume of LS 174T” value read?
The value was “has a tendency to increase”.
